Data reported in patent publication US9744191B2, “Antimicrobial compositions and methods” (Yale University, priority 2012, dated 2017).
“Also recorded” adds a separate entry of the source.

Assays:
[1] = test system: Saccharomyces cerevisiae MYH500; experiment: Growth assays for antifungal compounds combined with fluoride: S. cerevisiae; assay type: cell-based; conditions: for fungal growth inhibition compared with NaF: 30 mM and 80 mM, with amphotericin B; for effect of ion on MIC of amphotericin B: tested at 30 mM and 80 mM with amphotericin B; for inhibition of S. cereviciae growth: under the assay conditions, data not shown
Description: (§1) Model Organism: Saccharomyces cerevisiae MYH500 [Genotype: his3-del200, leu2-3, ura3-52, lys2-801, trp1-1, gal2]
Methods: • 1. Pick an isolated yeast colony (S. cerevisiae MYH500) from a plate, inoculate into 2 mL YPD medium in a 14 mL snap-cap tube and grow for 12 h at 30° C. on a shaker (200 rpm). The O.D.600 of the culture should be approximately 1.30. • 2. Two growth methods are used. (i) If culturing cells in 14 mL snap-cap tubes, dilute the cells 1:3 (1 vol. of 12 hr cell culture plus 2 vol. medium). Then, inoculate 2 mL YPD medium with 20 μL of 1/3 diluted cells (1% inoculation). […] (ii) For growth curve measurements, culture cells in a honeycomb 2 plate (Oy Growth Curves Ab Ltd) with 400 μL of medium inoculated with 8 μL of 1:6 diluted cells (1% inoculation). […] Supplement a fungicide and/or fluoride in the culture as necessary for each experiment.

[2] = test system: Candida albicans (SC5314; ATCC number MYA-2876); experiment: Growth assays for amphotericin B combined with fluoride: C. albicans; assay type: cell-based; conditions: for effect on C. albicans growth: liquid medium, 48 hours
Description: Organism: Candida albicans (SC5314; ATCC number MYA-2876)
Methods: • 1. Pick an isolated C. albicans yeast colony from a plate, inoculate into 2 mL YPD medium in a 17 mL screw-cap tube and grow for 12 h at 28° C. on a shaker (200 rpm). The O.D.600 of the culture should be approximately 3.6. • 2. Two growth methods were used. (i) If culturing cells in 17 ml screw-cap tubes, dilute the cells 1:5 (1 volume of 12 hr cell culture plus 4 volumes of medium). Inoculate 2 mL YPD medium with 20 μL of 1-to-5 diluted cells (1% inoculation). Incubate at 28° C. and 200 rpm for 9 hours before measuring O.D. (ii) For growth curve measurements, culture cells in a honeycomb 2 plate with 400 μL of medium inoculated with 8 μL of 1-to-10 diluted cells (1% inoculation). Culture for 48 hrs at 28° C., measuring OD600 every 15 m without shaking in the Bioscreen C MBR instrument. • 3. Supplement a fungicide and/or fluoride in the culture as necessary for each experiment.

[3] = test system: Neurospora crassa (FGSC #2225); experiment: Growth assays for antifungal compounds combined with fluoride: N. crassa; assay type: cell-based
Description: Model Organism: Neurospora crassa (FGSC #2225) [Genotype: N. crassa, A]
Methods: • 1. Recover N. crassa on a slant with minimal medium at 25° C. for 5-6 days to grow spores. • 2. Re-suspend two loops of spores in 2 mL minimal medium. • 3. Inoculate 20 μL into 2 mL minimal medium in an autoclaved 16×150 mm glass tube with cap. • 4. Supplement a fungicide and/or fluoride in the culture as necessary for each experiment. • 5. Grow for 24 h at 25° C. on a shaker (200 rpm).

[4] = test system: Saccharomyces cerevisiae MYH500; experiment: Fungicidal fluoride assay (colony counts after culture in fluoride); assay type: cell-based; conditions: 300 mM fluoride in liquid medium, 160 minute incubation
Description: CrcB proteins are most likely fluoride transporters. The fungal expression of crcB and the subsequent ejection of fluorides from cells is a major mechanism for how these organisms overcome fluoride toxicity. To assess whether fluoride simply halts fungal growth (fungistatic) or kills fungal cells (fungicidal), a culture of Saccharomyces cereviciae and added 300 mM fluoride to the medium was prepared. Samples of this mixture were taken at various times, plated, and the number of resulting colonies were recorded (FIG. 1). […] Therefore, compounds that facilitate the uptake and/or retention of fluoride, or otherwise inhibit the fluoride toxicity mitigation responses of fungi, also function as fungicidal compounds when used in combination with fluoride.
as §1
Medium: YPD (liquid and solid)
• 1. Pick an isolated yeast colony (S. cerevisiae MYH500) from a plate, inoculate into 2 mL YPD medium (liquid) in a 14 mL snap-cap tube and grow for 12 h at 30° C. on a shaker (200 rpm). • 2. Dilute 20 μL of the culture into 2 mL medium and mix. Remove a 20 μL aliquot and transfer to 2 mL YPD medium with 300 mM NaF. Grow at 30° C. on a shaker (200 rpm) for 10, 20, 40, 80, 160 and 240 m. • 3. At each time point, transfer 100 μL culture to an agar plate and distribute. • 4. […]

[5] = test system: Escherichia coli crcB knock-out; conditions: E. coli crcB knock-out compared to wild-type; cited from earlier work
[6] = target: T1, crcB fluoride transporter (Escherichia coli, UniProt P37002); experiment: Fluoride riboswitch beta-galactosidase reporter assay in E. coli cells with imipramine; assay type: cell-based
T1 construct: endogenous in cells; host or cells: E. coli cells carrying a fluoride riboswitch beta-galactosidase reporter construct
Text: Fluoride riboswitch fused to a beta-galactosidase reporter gene. Construct is present in E. coli cells and cells are exposed to concentrations of sodium fluoride and imipramine (x-axis) as noted in FIG. 10.

[7] = test system: Saccharomyces cerevisiae MYH500; experiment: Growth assays for Novexatin combined with fluoride: S. cerevisiae; assay type: cell-based; conditions: S. cereviciae; for improvement in MIC at about 24 hours: 30 mM NaF, approximately 24 hours (26.25 h)
Description: as §1
Methods: • 1. Pick an isolated yeast colony (S. cerevisiae MYH500) from a plate, inoculate into 2 mL YPD medium in a 14 mL snap-cap tube and grow for 12 h at 30° C. on a shaker (200 rpm). The O.D.600 of the culture should be approximately 1.30. • 2. For growth curve measurements, culture cells in a honeycomb 2 plate with 80 μL of medium (final volume) inoculated with 2 μL of 1:12 diluted cells. Culture for 48 hrs at 30° C., measuring O.D.600 every 15 m without shaking in the Bioscreen C MBR instrument. • 3. Supplement a fungicide and/or fluoride in the culture as necessary for each experiment.

T1 sequence (P37002 whole entry): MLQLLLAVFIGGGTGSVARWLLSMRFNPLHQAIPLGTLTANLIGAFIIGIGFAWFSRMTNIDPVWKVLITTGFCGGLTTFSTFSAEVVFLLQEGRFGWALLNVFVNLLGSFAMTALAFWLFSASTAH

[Cl-].[K+] [KCl]
fungal growth inhibition compared with NaF [1]: consistently less effective than NaF | effect of ion on MIC of amphotericin B [1]: improve the MIC values of amphotericin B

[Cl-].[Na+] [NaCl]
fungal growth inhibition compared with NaF [1]: consistently less effective than NaF | effect of ion on MIC of amphotericin B [1]: improve the MIC values of amphotericin B

C[C@@H]1[C@H](O)[C@@H](C)/C=C/C=C/C=C/C=C/C=C/C=C/C=C/[C@H](O[C@@H]2O[C@H](C)[C@@H](O)[C@H](N)[C@@H]2O)C[C@@H]2O[C@](O)(C[C@@H](O)C[C@@H](O)[C@H](O)CC[C@@H](O)C[C@@H](O)CC(=O)O[C@H]1C)C[C@H](O)[C@H]2C(=O)O [amphotericin B]
MIC for C. albicans ([2]; medium supplemented with 30 mM fluoride): ~0.05 µM | effect of combination on growth inhibition ([1]; 10 nM amphotericin B in combination with a range of fluoride concentrations): dramatic increase in the growth-inhibition effects of fluoride | effect on cell growth ([1]; 10 nM amphotericin B used alone): almost no effect on cell growth | growth inhibition effect on S. cereviciae ([1]; 20 nM amphotericin B alone): almost no growth inhibition effect | improvement in MIC for S. cereviciae ([1]; 30 mM fluoride added to liquid medium): approximately 10 fold | improvement in MIC for S. cereviciae ([1]; 80 mM fluoride): ~30 fold | amphotericin B concentration required to almost completely inhibit growth ([1]; absence of fluoride, over 48 hours): 300 nM | effect on S. cereviciae growth ([1]; amphotericin B 30 to 70 nM, absence of fluoride): only marginally delay near full growth | amphotericin B concentration required to prevent N. crassa growth ([3]; amphotericin B tested independently, 24 h): greater than 300 nM | reduction of MIC for N. crassa ([3]; combined with 10 mM fluoride): at least 4 fold | reduction of MIC for N. crassa ([3]; combined with 30 mM fluoride): ≥ 10 fold

[F-].[Na+] [fluoride, Sodium fluoride]
effect on C. albicans growth ([2]; 100 mM fluoride alone): only a modest inhibitory effect | effect on C. albicans growth ([2]; 300 mM fluoride alone): completely prevented growth | loss of cell viability (colonies after plating) [4]: near complete killing | effect on fungal growth ([1]; 60 mM fluoride combined with 20 nM amphotericin B): complete inhibition of growth | effect on fungal growth ([1]; 60 mM fluoride tested alone): only a modest effect on fungal growth | lengthening of time to near full culture growth ([1]; 80 mM fluoride alone): two fold | effect on S. cereviciae growth ([1]; fluoride alone, 30 mM in liquid medium): only marginally affects | fluoride concentration required to completely inhibit fungal growth ([1]; fluoride alone, 48-hour culture): > 100 mM | increase in sensitivity to fluoride of crcB knock-out strain [5]: approximately 200 fold | fluoride concentration required to completely prevent N. crassa growth ([3]; fluoride tested independently, 24 h): greater than 80 mM

CN(C)CCCN1c2ccccc2CCc2ccccc21 [imipramine, Imipramine]
reporter gene expression (fluorescence, substrate 4-MUG) ([6]; 330 μM imipramine, E. coli cells with riboswitch-reporter construct, sodium fluoride): increased expression of the reporter gene | reporter gene expression with imipramine in cells lacking CrcB ([6]; E. coli cells lacking the gene for fluoride transporter protein CrcB): substantially reduced

CN(C/C=C/C#CC(C)(C)C)Cc1cccc2ccccc12 [terbinafine]
inhibition of S. cereviciae growth [1]: did not significantly inhibit S. cereviciae growth

Cc1cccc(N(C)C(=S)Oc2ccc3ccccc3c2)c1 [tolnaftate]
inhibition of S. cereviciae growth [1]: did not significantly inhibit S. cereviciae growth

aculeacin A
effect of fluoride on inhibition of S. cereviciae growth by the antifungal ([1]; 30 mM fluoride): not affected at all; also recorded: lack of an effect

cyclic hepta-arginine [NOVEXATIN®]
improvement in MIC at about 24 hours [7]: A similar result | improvement in MIC at about 24 hours ([7]; listed as Novexatin®): improvement in MIC | improvement in MIC ([7]; combined with 30 mM fluoride, 48 h): greater than 3 fold | concentration needed to almost completely prevent fungal growth ([7]; over 48 hours, no fluoride): 3 mM
